System: 485176-168-R4-J1-PDC spheroids with HUVEC/MSC, viability
Assay: Anticancer human tumor 485176-168-R4-J1-PDC patient-derived pancreatic adenocarcinoma cell line growth inhibition [GQUAD]
Details: for IC50: curve of first compound; for viability, T/C: stronger effect = lower value
Text: DNA G-quadruplex Stabilizer Agents in Combinations in Complex Spheroids
A high-throughput screen of multi-cell type tumor spheroids was designed to identify active combinations of DNA G-quadruplex stabilizer agents and targeted small molecules. Complex spheroids include a stromal component modeled by human endothelial cells (HUVEC) and fibroblasts modeled by human mesenchymal stem cells (MSCs). The concentration ranges selected for each drug and investigational agent were based upon clinically achievable concentrations if the clinical Cmax of the agent was known.
Compounds. The drugs and investigational agents: pidnarulex (CX-5461; NSC782164), APTO-253 (NSC789042), BRACO-19 (NSC847499), peposertib (NSC802822), ceralasertib (NSC780249), elimusertib (NSC800525), camonsertib (NSC841442), AZD-1390 (NSC803789), olaparib (NSC753686), talazoparib (NSC767125), ART-558 (NSC835418), sotorasib (NSC818433), MRTX-1133 (NSC836407), SN-38 (NSC673596), topotecan (NSC609699), etoposide (NSC141540), doxorubicin (NSC123127), gemcitabine (NSC613327), 5-fluorouracil (NSC19893), paclitaxel (NSC125973), vemurafenib (NSC761431), panobinostat (NSC761190), R-306465 (JNJ-16241199; NSC773264), adavosertib (NSC754352), TP-3654 (NSC805149), carboplatin (NSC241240), KSQ-4279 (NSC840948), and staurosporine (NSC755774) were obtained from the National Cancer Institute (NCI) Developmental Therapeutics Program Chemical Repository (34). The FDA-approved anticancer drug set is available from the NCI Developmental Therapeutics Program. […] The stock solutions were prepared in dimethyl sulfoxide (DMSO, Sigma-Aldrich, St. Louis, MO, cat. D2650) at 800-fold the tested concentration and stored at -70 degrees C prior to their use. All drugs and investigational agents were tested over a range starting from a high concentration at or near the clinical Cmax and decreasing in half-log increments. If the clinical Cmax for an agent had not been determined, the highest concentration tested was 10 microM.
2.3 Cell Culture. All cells were maintained in an incubator at 37 degrees C and 5% CO2 with 95% humidity. The PDC lines were cultured according to standard operating procedures established by the NCI PDMR. All PDCs were thawed and cultured in Matrigel-coated flasks prepared with a working solution of 1X Ham's F-12 nutrient mix, without supplementation (Invitrogen, cat. 11765054), 100 U/mL penicillin-streptomycin (Invitrogen, cat. 15140122), and 2.5% Matrigel (Corning Inc., cat. 354248) for the first three passages. The 857933-349-R-J2-PDC line was cultured in 6C/Colon 1B media, which includes advanced DMEM/F-12 (Thermo Fisher Scientific, cat. 12634028), 10 mM HEPES (Thermo Fisher Scientific, cat. 15630080), 1X GlutaMAX supplement (Thermo Fisher Scientific, cat. 35050061), 0.1 mg/mL primocin (InvivoGen, cat. ant-pm-2), 10% defined fetal bovine serum, heat inactivated (HyClone Laboratories Inc., cat. SH30070.03HI), 50% L-WRN conditioned media (ATCC, cat. CRL-3276), 1.25 mM N-Acetyl-L-cysteine (Sigma-Aldrich, cat. A9165), 10 mM nicotinamide (Sigma-Aldrich, cat. N0636), 1X B-27 supplement (Thermo Fisher Scientific, cat. 17504044), 1X N-2 supplement (Thermo Fisher Scientific, cat. 17502048), 10 microM Y-27632 dihydrochloride (Tocris Bioscience, cat. 1254), and 50 ng/mL human EGF recombinant protein (Thermo Fisher Scientific, cat. PHG0311). The 485176-168-R4-J1-PDC line was cultured in Panc media, which includes all 6C/Colon 1B media components plus 100 ng/mL human FGF-10 (Thermo Fisher Scientific, cat. 100-26), 500 nM SB-431542 (Selleckchem, cat. S1067), and gastrin (Tocris, cat. 3006).
[…]
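Also: spheroids exposed to compounds for seven days before readout.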
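For viability, T/C in this document: percent viability relative to DMSO vehicle control wells as 100%.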

## C=CC(=O)N1CCN(c2nc(=O)n(-c3c(C)ccnc3C(C)C)c3nc(-c4c(O)cccc4F)c(F)cc23)C(C)C1 (configuration not stated) + Cc1[nH]c2ccc(F)cc2c1-c1nc2c3cccnc3c3ncccc3c2[nH]1
Second compound 0.0316 µM
  IC50: > 10 µM
Second compound 0.1 µM
  IC50: > 10 µM
Second compound 0.316 µM
  IC50: > 10 µM
Second compound 1 µM
  IC50: > 10 µM
Second compound 3.16 µM
  IC50: > 10 µM
Second compound 10 µM
  IC50: > 10 µM
Second compound 0.0316 µM, first compound 0.0316 µM
  viability, T/C: 114%
Second compound 0.0316 µM, first compound 0.1 µM
  viability, T/C: 100%
Second compound 0.0316 µM, first compound 0.316 µM
  viability, T/C: 103%
Second compound 0.0316 µM, first compound 1 µM
  viability, T/C: 89.4%
Second compound 0.0316 µM, first compound 3.16 µM
  viability, T/C: 122%
Second compound 0.0316 µM, first compound 10 µM
  viability, T/C: 102%
Second compound 0.1 µM, first compound 0.0316 µM
  viability, T/C: 80.1%
Second compound 0.1 µM, first compound 0.1 µM
  viability, T/C: 109%
Second compound 0.1 µM, first compound 0.316 µM
  viability, T/C: 116%
Second compound 0.1 µM, first compound 1 µM
  viability, T/C: 112%
Second compound 0.1 µM, first compound 3.16 µM
  viability, T/C: 117%
Second compound 0.1 µM, first compound 10 µM
  viability, T/C: 102%
Second compound 0.316 µM, first compound 0.0316 µM
  viability, T/C: 87.3%
Second compound 0.316 µM, first compound 0.1 µM
  viability, T/C: 86.4%
Second compound 0.316 µM, first compound 0.316 µM
  viability, T/C: 92%
Second compound 0.316 µM, first compound 1 µM
  viability, T/C: 101%
Second compound 0.316 µM, first compound 3.16 µM
  viability, T/C: 111%
Second compound 0.316 µM, first compound 10 µM
  viability, T/C: 96.7%
Second compound 1 µM, first compound 0.0316 µM
  viability, T/C: 96.7%
Second compound 1 µM, first compound 0.1 µM
  viability, T/C: 86.5%
Second compound 1 µM, first compound 0.316 µM
  viability, T/C: 104%
Second compound 1 µM, first compound 1 µM
  viability, T/C: 103%
Second compound 1 µM, first compound 3.16 µM
  viability, T/C: 113%
Second compound 1 µM, first compound 10 µM
  viability, T/C: 104%
Second compound 3.16 µM, first compound 0.0316 µM
  viability, T/C: 91.7%
Second compound 3.16 µM, first compound 0.1 µM
  viability, T/C: 95.5%
Second compound 3.16 µM, first compound 0.316 µM
  viability, T/C: 108%
Second compound 3.16 µM, first compound 1 µM
  viability, T/C: 83.6%
Second compound 3.16 µM, first compound 3.16 µM
  viability, T/C: 92.1%
Second compound 3.16 µM, first compound 10 µM
  viability, T/C: 90.8%
Second compound 10 µM, first compound 0.0316 µM
  viability, T/C: 87.3%
Second compound 10 µM, first compound 0.1 µM
  viability, T/C: 105%
Second compound 10 µM, first compound 0.316 µM
  viability, T/C: 78.1%
Second compound 10 µM, first compound 1 µM
  viability, T/C: 80.8%
Second compound 10 µM, first compound 3.16 µM
  viability, T/C: 87.7%
Second compound 10 µM, first compound 10 µM
  viability, T/C: 76.5%

Source: PubChem BioAssay AID2060509 (Molecular Pharmacology Branch, DTP, NCI, 2025)
